Test results as given in patent publication US20230029570A1, “Bacillus Strain for Applications in Agriculture, Livestock Health and Environmental Protection” (Locus IP Company, LLC, priority 2020, published 2023).

Experiments:
E. coli = experiment: Reduction in optical density at 600 nm of E. coli cultures treated with cleaning compositions; assay type: cell-based; settings: 250 ppm
Description: The lipopeptide mixture produced by B. amy can be used in environmentally-friendly cleaning compositions and to enhance antimicrobial activity of other biosurfactants. Cleaning compositions were tested for their ability to control Gram-negative E. coli. Reduction in optical density at 600 nm (OD) was measured for cultures treated with each of the following compositions: […]

Staphylococcus sp. = experiment: Reduction in optical density at 600 nm of Staphylococcus sp. cultures treated with cleaning compositions; assay type: cell-based
Description: Cleaning compositions according to embodiments of the subject invention were also tested for their ability to control a Gram-positive Staphylococcus sp. Reduction in optical density at 600 nm (OD) was measured for cultures treated with each of the following compositions: […]

Row | Substance | OD600 % reduction after 2 hours (E. coli) | OD600 % reduction after 2 hours (Staphylococcus sp.; 100 ppm) | OD600 % reduction after 2 hours (Staphylococcus sp.; 250 ppm) | OD600 % reduction after 2 hours (Staphylococcus sp.; 50 ppm)
1 | linear SLP ethyl ester | 89.8% | 98.3% | – | –
2 | linear SLP butyl ester | 91.5% | – | 88.1% | –
3 | linear SLP isopropyl ester | 86.4% | – | – | 91.5%
